Assay results: US11541041B1, “Compounds that interact with the Ras superfamily for the treatment of cancers, inflammatory diseases, Rasopathies, and fibrotic disease” (Shy Therapeutics LLC, priority 2017, dated 2023)

How the values were obtained:
Rho-A = Rho-A (Homo sapiens (Human), UniProt P61586); assay: Rac and Rho inhibition assay; assay type: binding; conditions: read-out: Rho-A % Inh.
Description: (§1) Buffer-I: • 50 mM Tris, pH 7.5 • 150 mM NaCl (optional) • 1 mM MgCl2 • 1 mM DTT. • KRas G12D mutant protein was expressed as a His-tagged protein. Purified His-KRas G12D protein was diluted in buffer-I to a final concentration of 3-10 μg/ml. • 200 μl of the diluted His-KRas G12D protein was added to a nickel coated 96 well plate and incubated overnight at 4° C. • The next day, wells were washed 3× in 200 μl of Buffer-I. • Then 200 μl of Buffer-I were added to each well in the presence of 1% DMSO. • Tested compounds were added to the protein-coated wells at a concentration of 20 μM, and incubated for 3 hours at room temperature. While performing IC50 measurements a serial dilution of all tested concentrations was prepared.
(§2) Then 22 μl of Cy3-GTP or Cy5-GTP was added to each well. The labeled GTP was incubated for 45 min. at room temperature. • Following GTP incubation, wells were washed 3× in Buffer-I, and 200 μl of Buffer-I were added to each well. • Following washes, the amount of bound labeled-GTP was measured with an Eppendorf AF2200 plate reader.
(§3) By substituting KRas G12D mutant protein with either Rac-1 or Rho-A under the assay conditions described in Example 5, Rac-1 and Rho-A inhibition, respectively, were each determined.

Rac-1 = Rac-1 (Homo sapiens (Human), UniProt P63000); assay: Rac and Rho inhibition assay; assay type: binding; conditions: read-out: Rac-1 % Inh.
Description: as §1, §2, §3

[1] = target: KRas G12D/Q61H double mutant (Homo sapiens (Human), UniProt P01116, G12D/Q61H); assay: Ras GTP binding domain inhibition assay; conditions: at 20 μM; read-out: KRas G12D Q61H % Inh.
Description: as §1, §2
By substituting KRas G12D mutant protein with KRas G12C mutant, KRas wild type, KRas Q61H mutant, KRas G12D/Q61H double mutant or KRas G12C/Q61H double mutant under the assay conditions described above, KRas G12C mutant KRas wild type, KRas Q61H mutant, KRas G12D/Q61H double mutant and KRas G12C/Q61H double mutant inhibition, respectively, were each determined.

TNFα = assay: Mouse TNF alpha quantification assay (LPS-stimulated RAW 264.7, ELISA); assay type: cell-based; conditions: RAW 264.7 murine leukemia virus transformed macrophage cell lines, LPS stimulation; for inhibition at 30 µM: Mus musculus, RAW264.7, 30 μM, read-out: TNF-α % Inhibition at 30 μM
Description: (§4) Cell lines: Abelson murine leukemia virus transformed macrophage cell line RAW 264.7 was purchased from ATCC and grown in complete DMEM-High Glucose medium supplemented with penicillin (100 U/mL), streptomycin (100 μg/mL), and 10% heat-inactivated FBS at 37° C. in a humidified incubator with 5% CO2.
(§5) Method: Cells were plated at 40000 cells/well density in a 96-wells plate. After a 3-hour incubation, macrophages were starved with DMEM plus 0.5% FBS o/n. The next day the small molecules to be tested were added to the cells in the final concentration of 30 μM (with 0.3% DMSO) 3 hours prior to LPS stimulation (100 ng/ml). After LPS stimulation cells were incubated at 37° C. for 16h. At the end of the incubation period, culture media were collected and production of LPS-induced TNFα and IL6 cytokine was measured using ELISA detection kits.
(§6) Sandwich ELISA: The ELISA Immunoassays Quantikine Mouse TNF-alpha (catalog number MTA00B) and IL6 (catalog number M6000B) were purchased from R&D Systems Inc., Minneapolis, Minn. These 4.5 hours solid phase ELISAs were used to measure mouse TNFα or IL6 levels in macrophages culture supernatants. Assays were executed according to the manufacturer specifications.

IL6 = assay: Mouse IL6 quantification assay (LPS-stimulated RAW 264.7, ELISA); assay type: cell-based; conditions: RAW 264.7 murine leukemia virus transformed macrophage cell lines, LPS stimulation; for inhibition at 30 µM: Mus musculus, RAW264.7, 30 μM, read-out: IL-6 % Inhibition at 30 μM
Description: as §4, §5, §6

Chain of KRas G12D/Q61H double mutant (P01116-2 other isoform, or with tags, fused parts or gaps G12D/Q61H): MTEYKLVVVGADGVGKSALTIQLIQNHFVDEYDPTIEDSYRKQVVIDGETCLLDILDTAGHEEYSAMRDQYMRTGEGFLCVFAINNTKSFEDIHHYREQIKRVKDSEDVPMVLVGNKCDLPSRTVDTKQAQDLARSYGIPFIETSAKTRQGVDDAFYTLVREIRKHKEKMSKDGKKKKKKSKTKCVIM
Chain of Rho-A (P61586 whole entry): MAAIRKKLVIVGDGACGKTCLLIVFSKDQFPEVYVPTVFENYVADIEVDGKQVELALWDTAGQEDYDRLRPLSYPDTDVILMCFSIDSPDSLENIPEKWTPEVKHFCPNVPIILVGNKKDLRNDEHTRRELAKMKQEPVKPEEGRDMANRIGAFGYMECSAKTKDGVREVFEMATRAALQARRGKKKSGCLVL

Compound	inhibition at 20 µM (Rho-A) [%]	inhibition at 20 µM (Rac-1) [%]	other results
CN(C)Cc1ccc(-c2csc3c(O)nc(-c4ccccn4)nc23)cc1F	76 to 100	76 to 100	
COCc1ccc(-c2csc3c(O)nc(-c4ccccn4)nc23)cc1F		76 to 100	
O=C(c1csc2c(O)nc(-c3ccccn3)nc12)N1CCNC(c2cn[nH]c2)C1 (stereo not drawn)		76 to 100	
CC(C)COc1ccc(-c2csc3c(O)nc(-c4ccccn4)nc23)cn1		76 to 100	
Oc1nc(-c2ccccn2)nc2c(-c3ccccc3C(F)F)csc12	76 to 100	76 to 100	
COc1cc(-c2csc3c(O)nc(-c4ccccn4)nc23)cnc1C(F)(F)F	51 to 75		
Oc1nc(-c2ccccn2)nc2c(-c3ccc4c(c3)CCCO4)csc12	51 to 75		
CCC1N=C(C)C=C1c1csc2c(O)nc(-c3ccccn3)nc12 (stereo not drawn)	76 to 100	51 to 75	inhibition at 20 µM [1]: 51 to 75%
Oc1nc(-c2ccccn2)nc2c(-c3cnc4ccccc4c3)csc12	51 to 75	51 to 75	
Oc1nc(-c2ccccn2)nc2c(-c3cc(C(F)(F)F)ccc3F)csc12	1 to 25		
Oc1nc(-c2ccccn2)nc2c(-c3cncc(C(F)(F)F)c3)csc12		1 to 25	
CCC(C)c1csc2c(OC)nc(-c3ccccn3)nc12 (stereo not drawn)		76 to 100	
Cc1c(C(=O)N2CCN(c3ccccc3)CC2)sc2c(O)nc(-c3ccccn3)nc12	76 to 100		
COC(=O)c1c(C)sc2nc(-c3ccccn3)nc(N)c12	51 to 75	25 to 50	
CN(C)CCOc1cccc(-c2csc3c(O)nc(-c4ccccn4)nc23)c1	76 to 100	76 to 100	
Cc1sc2c(O)nc(-c3ccccn3)nc2c1C(=O)N1CCN(Cc2cccc(O)c2)CC1	76 to 100	76 to 100	
Oc1nc(-c2ccccn2)nc2c(C3CC3)csc12	51 to 75		
COc1cnc(CNC(=O)c2c(C)sc3c(O)nc(-c4ccccn4)nc23)[nH]c1=O	1 to 25	1 to 25	
O=C(c1csc2c(O)nc(-c3ccccn3)nc12)N1CCNC(c2ccc(Cl)cc2)C1 (stereo not drawn)	76 to 100	76 to 100	
Cc1cc2nc(-c3ccccn3)nc(O)c2s1 [drawing 2263]			inhibition at 30 µM (TNFα): 1 to 25%; inhibition at 30 µM (IL6): 1 to 25%
COc1ccc(CCNC(=O)c2csc3nc(-c4ccccn4)nc(N4CCSCC4)c23)cn1 [drawing 2280]			inhibition at 30 µM (TNFα): 0%; inhibition at 30 µM (IL6): 26 to 50%
O=C(NCCc1cnc(O)nc1)c1csc2nc(-c3ccccn3)nc(N3CCSCC3)c12 [drawing 2281]			inhibition at 30 µM (TNFα): 0%; inhibition at 30 µM (IL6): 51 to 75%
Cc1sc2c(O)nc(-c3ccccn3)nc2c1Br [drawing 2319]			IL-6 % Inhibition at 30 μM (IL6; 30 μM): A (A = 1-25% inhibition)
Cc1sc2c(O)nc(-c3ccccn3)nc2c1Br [drawing 2383]			TNF-α % Inhibition at 30 μM (TNFα; 30 μM): 0 (0 = 0% inhibition)
OC[C@H]1O[C@@H](c2csc3c2N=C(c2ccccn2)NC3O)[C@H](O)[C@@H]1O (stereo partly drawn) [drawing 2388]			inhibition at 30 µM (TNFα): 26 to 50%; inhibition at 30 µM (IL6): 1 to 25%
COc1ccc(CCNC(=O)c2csc3nc(-c4ccccn4)nc(N4CCSCC4)c23)cn1 [drawing 3751]	1 to 25	25 to 50	inhibition at 20 µM [1]: 25 to 50%
O=C(NCCc1cnc(O)nc1)c1csc2nc(-c3ccccn3)nc(N3CCSCC3)c12 [drawing 3752]	51 to 75	51 to 75	inhibition at 20 µM [1]: 25 to 50%
Cc1cc2nc(-c3ccccn3)nc(O)c2s1 [drawing 3817]	76 to 100	76 to 100	
OC[C@H]1O[C@@H](c2csc3c2N=C(c2ccccn2)NC3O)[C@H](O)[C@@H]1O (stereo partly drawn) [drawing 3871]	51 to 75	51 to 75	
COCCNc1nc(-c2nccn2C)nc2sc(-c3ccccc3)c(-c3ccccc3)c12 [drawing 3879]	51 to 75	76 to 100	
